For data set [1] the following is noted: particularly liver and kidneys; cited from earlier work.
In data set [2] the test system is human breast,ovarian and liver cancer. The following applies: clinical, humans; cited from earlier work.
A further data set concerns L1210 cell line. The data set can be described thus: inhibition of growth of the leukaemia cell line L1210 in cell culture. The settings on record: Mus musculus, read-out: IC50 against the L1210 cell line. It is filed as cell-based. The text has this: (b) An assay which determines the ability of a test compound to inhibit the growth of the leukaemia cell line L1210 in cell culture. The test may be similar to that described in UK Patent Specification No. 2065653B; and […]

For a further data set, the system named is MCF-7 cell line. The data set can be described thus: inhibition of growth of the human breast cancer cell line MCF-7 in cell culture. Format: cell-based. The following applies: MCF7, MCF-7 cell culture, read-out: IC50 against the MCF-7 cell line. From the text: (c) An assay which determines the ability of a test compound to inhibit the growth of the human breast cancer cell line MCF-7 in cell culture. The test may be similar to that described by Lippman et al (Cancer Res., 1976, 36, 4595).

For the molecule `C#CCN(Cc1ccc2nc(N)[nH]c(=O)c2c1)c1ccc(C(=O)N[C@@H](CCC(=O)O)C(=O)O)cc1` [CB3717], the toxicity in humans entry in data set [1] was “symptoms of toxicity in humans, particularly in relation to the liver and kidneys”. In data set [2], the “activity against human breast, ovarian and liver cancer” value is on record as “promising activity”.
Regarding `C#CCN(Cc1ccc2nc(C)[nH]c(=O)c2c1)c1ccc(C(=O)N[C@@H](CCC(=O)N(C)[C@@H](CCC(=O)O)C(=O)O)C(=O)O)cc1` [Example 1, N-p-[N-(3,4-Dihydro-2-methyl-4-oxoquinazolin-6-ylmethyl)-N-(prop-2-ynyl)amino]benzoyl-L-γ-glutamyl-N-methyl-L-glutamic acid], the IC50 amounted to 240 nM in the data set on L1210 cell line and 300 nM in the data set with MCF-7 cell line.

(Values after US5561133A, “Thymidylate synthase inhibiting quinazolinones” (British Technology Group Limited, priority 1992, dated 1996).)
